Results as given in paper PMC11864979, “First-in-class ultralong-target-residence-time p38α inhibitors as a mitosis-targeted therapy for colorectal cancer” (Nature Cancer, 2025).
Read-outs that look alike come from different tables or passages of the source.

Experiments:
Assay in all cases: selectivity profiling in a panel of 340 wild-type kinases (Reaction Biology Europe)
Format in all cases: binding
340 wild-type kinases [1] = target: T1, 340 wild-type kinases (Homo sapiens, UniProt O00444)
T1 construct: purchased Reaction Biology Europe
T1 sequence (O00444 1-970): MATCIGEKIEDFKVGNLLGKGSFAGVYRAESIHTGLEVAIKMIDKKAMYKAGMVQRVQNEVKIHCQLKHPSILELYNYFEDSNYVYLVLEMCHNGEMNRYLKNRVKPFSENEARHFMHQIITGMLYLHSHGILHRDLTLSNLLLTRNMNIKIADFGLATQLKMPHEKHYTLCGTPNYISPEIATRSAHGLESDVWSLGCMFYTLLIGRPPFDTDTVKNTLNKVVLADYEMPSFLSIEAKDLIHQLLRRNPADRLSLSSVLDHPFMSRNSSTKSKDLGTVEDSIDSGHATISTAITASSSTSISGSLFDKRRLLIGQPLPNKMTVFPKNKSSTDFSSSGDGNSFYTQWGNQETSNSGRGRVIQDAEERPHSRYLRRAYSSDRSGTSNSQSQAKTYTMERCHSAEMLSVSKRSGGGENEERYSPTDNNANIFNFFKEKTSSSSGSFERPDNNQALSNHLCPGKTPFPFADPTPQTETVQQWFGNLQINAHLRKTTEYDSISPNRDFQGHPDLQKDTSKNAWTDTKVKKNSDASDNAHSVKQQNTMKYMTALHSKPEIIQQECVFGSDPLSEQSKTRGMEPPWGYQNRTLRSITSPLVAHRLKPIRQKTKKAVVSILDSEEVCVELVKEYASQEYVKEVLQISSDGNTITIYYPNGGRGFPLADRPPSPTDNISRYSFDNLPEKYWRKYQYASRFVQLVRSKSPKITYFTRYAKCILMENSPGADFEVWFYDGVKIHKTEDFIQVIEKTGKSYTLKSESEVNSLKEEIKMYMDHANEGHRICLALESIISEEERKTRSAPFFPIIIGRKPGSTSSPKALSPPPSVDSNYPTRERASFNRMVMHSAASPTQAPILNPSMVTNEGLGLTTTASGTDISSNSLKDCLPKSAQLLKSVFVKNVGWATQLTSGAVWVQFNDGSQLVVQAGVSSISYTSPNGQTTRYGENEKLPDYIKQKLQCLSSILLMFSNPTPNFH

340 wild-type kinases [2] = target: T2, 340 wild-type kinases (Homo sapiens, UniProt P28482)
T2 construct: purchased Reaction Biology Europe
T2 sequence (P28482 whole entry): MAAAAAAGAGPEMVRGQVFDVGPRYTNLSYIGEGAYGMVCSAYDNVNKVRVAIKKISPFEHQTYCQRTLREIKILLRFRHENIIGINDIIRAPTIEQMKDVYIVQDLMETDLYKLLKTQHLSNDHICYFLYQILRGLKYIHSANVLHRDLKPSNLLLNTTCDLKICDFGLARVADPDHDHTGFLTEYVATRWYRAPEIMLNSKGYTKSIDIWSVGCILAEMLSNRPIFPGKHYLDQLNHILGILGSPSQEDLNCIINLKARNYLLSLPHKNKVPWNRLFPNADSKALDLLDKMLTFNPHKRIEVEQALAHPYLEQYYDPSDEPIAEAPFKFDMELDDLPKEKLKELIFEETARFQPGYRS

340 wild-type kinases [3] = target: T3, 340 wild-type kinases (Homo sapiens, UniProt Q00526)
T3 construct: purchased Reaction Biology Europe
T3 sequence (Q00526 whole entry): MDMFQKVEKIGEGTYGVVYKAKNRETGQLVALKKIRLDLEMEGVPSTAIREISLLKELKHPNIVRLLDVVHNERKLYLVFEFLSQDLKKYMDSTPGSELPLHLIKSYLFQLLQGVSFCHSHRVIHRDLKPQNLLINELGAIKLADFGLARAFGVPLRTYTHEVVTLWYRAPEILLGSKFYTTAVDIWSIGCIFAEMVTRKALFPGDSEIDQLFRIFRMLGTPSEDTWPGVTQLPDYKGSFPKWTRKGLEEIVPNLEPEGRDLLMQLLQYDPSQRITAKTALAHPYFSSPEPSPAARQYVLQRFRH

340 wild-type kinases [4] = target: T4, 340 wild-type kinases (Homo sapiens, UniProt Q05655)
T4 construct: purchased Reaction Biology Europe
T4 sequence (Q05655 whole entry): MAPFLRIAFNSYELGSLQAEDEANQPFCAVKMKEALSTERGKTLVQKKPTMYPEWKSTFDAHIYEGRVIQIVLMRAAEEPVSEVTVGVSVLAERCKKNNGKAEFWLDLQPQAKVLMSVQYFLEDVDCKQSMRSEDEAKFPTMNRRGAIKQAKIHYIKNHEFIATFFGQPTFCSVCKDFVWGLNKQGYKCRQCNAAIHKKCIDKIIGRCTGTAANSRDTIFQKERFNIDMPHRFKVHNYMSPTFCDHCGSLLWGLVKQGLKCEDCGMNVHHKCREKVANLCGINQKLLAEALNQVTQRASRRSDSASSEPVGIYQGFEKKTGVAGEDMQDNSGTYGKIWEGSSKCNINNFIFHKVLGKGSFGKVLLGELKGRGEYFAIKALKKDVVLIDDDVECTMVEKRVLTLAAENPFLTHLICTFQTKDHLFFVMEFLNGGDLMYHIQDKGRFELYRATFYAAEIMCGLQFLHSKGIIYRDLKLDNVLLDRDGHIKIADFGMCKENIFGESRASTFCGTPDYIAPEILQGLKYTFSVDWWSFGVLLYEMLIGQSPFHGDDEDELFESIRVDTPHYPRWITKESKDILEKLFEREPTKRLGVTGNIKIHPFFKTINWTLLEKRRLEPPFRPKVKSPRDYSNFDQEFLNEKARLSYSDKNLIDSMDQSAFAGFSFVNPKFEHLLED

340 wild-type kinases [5] = target: T5, 340 wild-type kinases (Homo sapiens, UniProt Q15139)
T5 construct: purchased Reaction Biology Europe
T5 sequence (Q15139 1-912): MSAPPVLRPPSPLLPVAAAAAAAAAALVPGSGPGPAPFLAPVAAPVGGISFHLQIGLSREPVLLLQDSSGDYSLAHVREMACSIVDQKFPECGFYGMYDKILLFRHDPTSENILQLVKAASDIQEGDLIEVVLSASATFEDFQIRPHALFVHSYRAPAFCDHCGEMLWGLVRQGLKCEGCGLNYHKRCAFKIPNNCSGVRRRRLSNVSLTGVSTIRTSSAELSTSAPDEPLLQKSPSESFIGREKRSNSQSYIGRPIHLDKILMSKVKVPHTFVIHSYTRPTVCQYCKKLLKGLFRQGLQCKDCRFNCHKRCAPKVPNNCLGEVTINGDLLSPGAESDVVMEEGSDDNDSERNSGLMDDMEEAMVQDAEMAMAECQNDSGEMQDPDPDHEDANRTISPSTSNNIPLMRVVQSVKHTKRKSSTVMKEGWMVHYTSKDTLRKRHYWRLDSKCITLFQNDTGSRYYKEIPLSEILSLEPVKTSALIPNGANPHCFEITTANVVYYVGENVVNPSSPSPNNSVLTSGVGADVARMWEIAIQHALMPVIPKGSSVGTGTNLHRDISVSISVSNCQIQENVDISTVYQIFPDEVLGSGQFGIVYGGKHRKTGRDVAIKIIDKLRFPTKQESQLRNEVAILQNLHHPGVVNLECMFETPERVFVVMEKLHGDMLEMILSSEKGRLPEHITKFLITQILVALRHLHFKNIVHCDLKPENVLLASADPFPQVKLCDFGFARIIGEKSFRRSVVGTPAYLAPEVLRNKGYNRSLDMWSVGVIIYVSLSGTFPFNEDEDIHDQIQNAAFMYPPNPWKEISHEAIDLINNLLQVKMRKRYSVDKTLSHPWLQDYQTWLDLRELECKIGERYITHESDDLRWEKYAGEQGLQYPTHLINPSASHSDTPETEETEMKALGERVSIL

340 wild-type kinases [6] = target: T6, 340 wild-type kinases (Homo sapiens, UniProt Q9H0K1)
T6 construct: purchased Reaction Biology Europe
T6 sequence (Q9H0K1 whole entry): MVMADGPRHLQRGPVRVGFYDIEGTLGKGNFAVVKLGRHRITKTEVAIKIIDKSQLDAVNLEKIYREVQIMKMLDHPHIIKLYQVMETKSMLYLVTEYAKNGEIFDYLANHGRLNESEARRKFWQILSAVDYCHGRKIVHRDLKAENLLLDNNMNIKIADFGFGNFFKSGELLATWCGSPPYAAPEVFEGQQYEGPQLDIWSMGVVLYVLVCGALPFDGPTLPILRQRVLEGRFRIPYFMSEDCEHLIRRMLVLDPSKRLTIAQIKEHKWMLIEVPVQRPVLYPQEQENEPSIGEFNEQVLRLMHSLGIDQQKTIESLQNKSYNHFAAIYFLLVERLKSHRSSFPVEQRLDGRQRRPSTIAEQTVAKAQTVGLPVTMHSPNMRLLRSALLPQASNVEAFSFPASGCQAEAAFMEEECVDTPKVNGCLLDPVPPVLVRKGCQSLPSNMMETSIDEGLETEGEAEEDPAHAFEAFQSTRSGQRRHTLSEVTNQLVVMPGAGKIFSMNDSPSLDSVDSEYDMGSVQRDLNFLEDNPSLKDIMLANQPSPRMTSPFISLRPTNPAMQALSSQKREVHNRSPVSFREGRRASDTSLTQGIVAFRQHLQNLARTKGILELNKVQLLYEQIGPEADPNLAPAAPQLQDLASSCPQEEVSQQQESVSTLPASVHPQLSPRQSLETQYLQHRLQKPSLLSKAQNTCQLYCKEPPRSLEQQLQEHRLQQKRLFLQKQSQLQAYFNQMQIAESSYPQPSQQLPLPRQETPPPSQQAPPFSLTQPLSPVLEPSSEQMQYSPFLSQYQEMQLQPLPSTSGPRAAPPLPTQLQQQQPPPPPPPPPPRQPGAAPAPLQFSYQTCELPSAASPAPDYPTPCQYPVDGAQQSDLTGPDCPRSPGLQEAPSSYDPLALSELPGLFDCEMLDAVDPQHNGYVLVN

340 wild-type kinases [7] = target: T7, 340 wild-type kinases (Homo sapiens, UniProt Q9P0L2)
T7 construct: purchased Reaction Biology Europe
T7 sequence (Q9P0L2 whole entry): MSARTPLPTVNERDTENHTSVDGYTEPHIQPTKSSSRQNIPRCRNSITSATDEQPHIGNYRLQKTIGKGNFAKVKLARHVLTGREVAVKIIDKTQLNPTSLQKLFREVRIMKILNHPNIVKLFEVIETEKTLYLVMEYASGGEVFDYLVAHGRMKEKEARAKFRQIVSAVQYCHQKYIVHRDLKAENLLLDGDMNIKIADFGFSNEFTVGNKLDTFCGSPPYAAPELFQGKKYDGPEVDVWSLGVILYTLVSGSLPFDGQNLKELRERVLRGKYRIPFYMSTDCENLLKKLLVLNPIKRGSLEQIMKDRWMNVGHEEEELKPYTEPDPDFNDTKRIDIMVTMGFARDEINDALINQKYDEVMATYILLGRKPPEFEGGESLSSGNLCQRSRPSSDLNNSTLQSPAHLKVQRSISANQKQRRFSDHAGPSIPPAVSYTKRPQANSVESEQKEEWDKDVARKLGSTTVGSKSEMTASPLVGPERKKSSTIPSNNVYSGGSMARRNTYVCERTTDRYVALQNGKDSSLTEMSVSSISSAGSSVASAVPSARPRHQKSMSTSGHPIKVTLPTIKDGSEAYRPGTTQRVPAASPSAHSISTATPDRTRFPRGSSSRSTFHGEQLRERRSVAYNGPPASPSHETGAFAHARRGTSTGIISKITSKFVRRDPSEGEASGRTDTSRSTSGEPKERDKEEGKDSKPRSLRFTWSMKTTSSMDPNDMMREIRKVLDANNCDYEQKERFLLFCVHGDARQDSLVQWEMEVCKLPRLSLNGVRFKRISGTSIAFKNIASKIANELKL

CNC(=O)c1ccc2c(c1)C(=O)c1ccc(Nc3ccc(F)c(NC(=O)C4CC4)c3)cc1CC2 [Compound 2015]
remaining activity at 0.2 µM (340 wild-type kinases [1]; 0.2 µM 2015, read-out: SAK residual activity): 103% | remaining activity at 1 µM (340 wild-type kinases [1]; 1 µM 2015, read-out: SAK residual activity): 104% | remaining activity at 0.2 µM (340 wild-type kinases [1]; SAK, 0.2 µM, read-out: residual activity): 103% | remaining activity at 1 µM (340 wild-type kinases [1]; SAK, 1 µM, read-out: residual activity): 104% | remaining activity at 0.2 µM (340 wild-type kinases [2]; 0.2 µM 2015, read-out: ERK2 residual activity): 99.1% | remaining activity at 1 µM (340 wild-type kinases [2]; 1 µM 2015, read-out: ERK2 residual activity): 90.5% | remaining activity at 0.2 µM (340 wild-type kinases [2]; ERK2, 0.2 µM, read-out: residual activity): 99.1% | remaining activity at 1 µM (340 wild-type kinases [2]; ERK2, 1 µM, read-out: residual activity): 90.5% | remaining activity at 0.2 µM (340 wild-type kinases [3]; 0.2 µM 2015, read-out: CDK3/CycC residual activity): 104% | remaining activity at 0.2 µM (340 wild-type kinases [3]; 0.2 µM 2015, read-out: CDK3/CycE1 residual activity): 88.9% | remaining activity at 1 µM (340 wild-type kinases [3]; 1 µM 2015, read-out: CDK3/CycC residual activity): 96.3% | remaining activity at 1 µM (340 wild-type kinases [3]; 1 µM 2015, read-out: CDK3/CycE1 residual activity): 81.7% | remaining activity at 0.2 µM (340 wild-type kinases [3]; CDK3/CycC, 0.2 µM, read-out: residual activity): 104% | remaining activity at 1 µM (340 wild-type kinases [3]; CDK3/CycC, 1 µM, read-out: residual activity): 96.3% | remaining activity at 0.2 µM (340 wild-type kinases [3]; CDK3/CycE1, 0.2 µM, read-out: residual activity): 88.9% | remaining activity at 1 µM (340 wild-type kinases [3]; CDK3/CycE1, 1 µM, read-out: residual activity): 81.7% | remaining activity at 0.2 µM (340 wild-type kinases [4]; 0.2 µM 2015, read-out: PKCdelta residual activity): 95.6% | remaining activity at 1 µM (340 wild-type kinases [4]; 1 µM 2015, read-out: PKCdelta residual activity): 97% | remaining activity at 0.2 µM (340 wild-type kinases [4]; PKCdelta, 0.2 µM, read-out: residual activity): 95.6% | remaining activity at 1 µM (340 wild-type kinases [4]; PKCdelta, 1 µM, read-out: residual activity): 97% | remaining activity at 0.2 µM (340 wild-type kinases [5]; 0.2 µM 2015, read-out: PKCmu residual activity): 98.1% | remaining activity at 1 µM (340 wild-type kinases [5]; 1 µM 2015, read-out: PKCmu residual activity): 95.1% | remaining activity at 0.2 µM (340 wild-type kinases [5]; PKCmu, 0.2 µM, read-out: residual activity): 98.1% | remaining activity at 1 µM (340 wild-type kinases [5]; PKCmu, 1 µM, read-out: residual activity): 95.1% | remaining activity at 0.2 µM (340 wild-type kinases [6]; 0.2 µM 2015, read-out: SIK2 residual activity): 101% | remaining activity at 1 µM (340 wild-type kinases [6]; 1 µM 2015, read-out: SIK2 residual activity): 98.1% | remaining activity at 0.2 µM (340 wild-type kinases [6]; SIK2, 0.2 µM, read-out: residual activity): 101% | remaining activity at 1 µM (340 wild-type kinases [6]; SIK2, 1 µM, read-out: residual activity): 98.1% | remaining activity at 0.2 µM (340 wild-type kinases [7]; 0.2 µM 2015, read-out: MARK1 residual activity): 97.9% | remaining activity at 1 µM (340 wild-type kinases [7]; 1 µM 2015, read-out: MARK1 residual activity): 95.7% | remaining activity at 0.2 µM (340 wild-type kinases [7]; MARK1, 0.2 µM, read-out: residual activity): 97.9% | remaining activity at 1 µM (340 wild-type kinases [7]; MARK1, 1 µM, read-out: residual activity): 95.7%
